Key:
NF-κB = NF-κB activation, Western blotting of phospho-p65 and phospho-IκBα; format: cell-based; conditions: in the presence of Coll2-1
Description: Western blotting. Cells were collected at 4° C. and lysed on ice in 50 μl of buffer (25 mM Hepes, 150 mM NaCl, 0.5% Triton X-100, 10% glycerol, and 1 mM dithiothreitol) containing protease and phosphatase inhibitors. After incubation at 4° C. for 30 minutes, lysates were then centrifugated at 14,000 g for 30 minutes at 4° C. to remove insoluble debris. Protein concentrations were determined using BCA assay. Total protein extracts (10 μg) were fractioned by electrophoresis on a polyacrylamide gel (10%) and transferred onto a PVDF membrane. Membrane were blocked for 1 h in TBS-Tween containing 2% bovine serum albumin (phosphor-NF-κB p65 and phospho-IκBα). Membranes were then incubated overnight at 4° C. with primary antibodies. Anti-rabbit phospho-NF-κB p65 (1:1000 dilution), anti-rabbit phospho-IκBα (1:1000 dilution) were used. Horse-radish peroxidase (HRP)-linked anti-rabbit IgG antibody (1:2000 dilution) was used as secondary antibody.

female Lewis rats = assay: In-vivo study, I.A. injection compared to SCW (streptococcal cell walls) model; conditions: for global histological score, right knee (injected): not significant
Description: An in-vivo study was performed to evaluate the potential immunizing effect of Coll2-1 peptide. This effect was evaluated in comparison with two validated models of rheumatoid arthritis: CIA (Collagen induced arthritis) and SCW (Streptococcal cell walls). The peptide has been injected once subcutaneous, at the base of the tail (S.C.—evaluation of systemic inflammation) or intra-articular (I.A.—evaluation of mono-articular inflammation) in female Lewis rats. Naïve controls (saline) were considered. Animals were euthanized 21 or 28 days after injection.
All animals (n=108 females; 96.0-129.7 gr) included in the study were identified by a unique chip. They were randomly distributed into 8 study groups (n=16/group except nave controls n=6/group, n=8/each time point) before induction (DO) based on their body weight (FIG. 1). • Injected controls (2 groups) • Group 1: bovin type II collagen (CIA)—S.C. (n=16) • Group 2: streptococcal cell wail (SCW)—I.A. (n=16) • Test groups (4 groups) • Group 3: Peptide dose 200 μg/100 μl—S.C. (n=16) • Group 4: Peptide dose 20 μg/100 μl—S.C. (n=16) • Group 5: Peptide dose 5 μg/50 μl—I.A. (n=16) • Group 6: Peptide dose 0.5 μg/50 μl—I.A. (n=16) • Naïve controls (2 groups) • Group 7: saline S.C. (n=6) • Group 8: saline I.A. (n=6)
Two injection ways were chosen to evaluate the potential effect of the peptide: intra-articular (I.A.) and subcutaneous (S.C.), two route classically used in the art.
Coll2-1 peptide was administered either I.A. under a 50 μL volume into the right knee or S.C. under a 100 μL volume at the base of the tail.
SCW was administered I.A. into the right knee under a 50 μL volume. Bovine type II collagen (CIA) was administered under 100 μL volume at the base of the tail.
Two doses of the Coll2-1 peptide were tested in both conditions.
It was administered I.A. at 5 and 0.5 μg under 50 μL
Coll2-1 peptide was administered once (DO).
Joint was considered arthritic when significant signs of redness and/or swelling was noted. Each paw was evaluated with a visual score (0-3) • 0: normal, no joint inflammation • 1: large joint inflammation • 2: medium joint inflammation • 3: small joint (distal) inflammation
A set of 4 values were recorded on each evaluation day. The 4 values were summed for analysis.
Right and left knees diameter were measured using a digital caliper.
Animals were euthanized 21 or 28 days after injection (D0). They were anesthetized with a subcutaneous injection of a Ketamin/Medetomidine mix and further euthanized by exsanguination.
Both entire knees from each animal were processed for histological analysis, They were decalcified in a HCl/EDTA mix (DC2, Qpath, VWR Belgium) for the appropriate time before inclusion in paraffin. Three frontal sections (5 μm) of each compartment were done 200 μm apart in the weight bearing zone using a microtome. Slides were stained according to a standard Safranin-O/Fast green protocol.
Slides were evaluated under a light microscope. Each slide was score for: • Infiltration of inflammatory cells in synovial tissue (0-3) • Inflammatory cells in the joint cavity (exudate) (0-3) • Cartilage proteoglycan depletion (0-3) • Loss of articular cartilage (0-3) • Bone erosion (0-3).
Infiltration of inflammatory cells in synovial tissue and inflammatory cells in the joint cavity were considered together (sum of the scores) as inflammatory parameters for the analysis of the detailed criteria.
Statistical analysis was performed with the appropriate test using GraphPad. • Visual score and evaluations (knee diameter measurements) were analyzed with a two way ANOVA followed, if positive, by Tukey's multiple comparison test. Graphs represented the mean of each group at each evaluated time point. • Histological scores were analyzed with a Kruskal Wallis for non-parametric values followed, if positive, by a Dunn's multiple comparison test. Graphs presented as box and whisker plots. Exact p values were provided and asterisks representation were also performed.

In the case of HRGYPGLDG [Coll2-1], the IκBα degradation (NF-κB) is reported as “induced”, the “phosphorylation of p65 NF-κB subunit” value (NF-κB) is reported as “observed the phosphorylation” and the “cartilage degradation score, left knee” value (female Lewis rats; Coll2-1 0.5 μg I.A. (Gr6)) is reported as “significant increase”. For the same sequence, the “inflammatory score, left knee, versus Gr8” value (female Lewis rats; Coll2-1 0.5 μg I.A. (Gr6)) was “significant increase”, the “matrix proteoglycan loss score, left knee, versus Gr8” value (female Lewis rats; Coll2-1 0.5 μg I.A. (Gr6)) was “significant increase” and the “right knee diameter, difference versus Gr8 (saline)” value (female Lewis rats; Coll2-1 0.5 μg I.A. (Gr6), D3) was “statistically different”. The “arthritis visual score, difference versus saline (Gr8)” value (female Lewis rats; Coll2-1 0.5 μg I.A. (Gr6), D28) was “statistically different”, the “cartilage degradation score, right knee, versus Gr8” value (female Lewis rats; Coll2-1 0.5 μg I.A. (Gr6), D28) was “significant increase” and the “global histological score, left knee, difference versus Gr2” value (female Lewis rats; Coll2-1 0.5 μg I.A. (Gr6), D28) was “not significant except for Gr6”. For the same sequence, the “global histological score, left knee, difference versus Gr8” value (female Lewis rats; Coll2-1 0.5 μg I.A. (Gr6), D28) was “not significant except for Gr6”, the “global histological score, right knee (injected)” value (female Lewis rats; Coll2-1 0.5 μg I.A. (Gr6)) was “intermediate between Gr8 (saline) and Gr2 (SCW)” and the “global histological score, left knee, differences” value (female Lewis rats; Coll2-1 5 μg I.A. (Gr5)) was “not significant”. The “arthritis visual score, difference versus Gr 6 (Coll2-1 peptide 0.5 μg)” value (female Lewis rats; Coll2-1 5 μg I.A. (Gr5), D17) was “statistically different”, the “arthritis visual score, difference versus saline (Gr8)” value (female Lewis rats; Coll2-1 5 μg I.A. (Gr5), D17) was “statistically different” and the “left knee diameter, difference versus Gr2 (SCW)” value (female Lewis rats; Coll2-1 5 μg I.A. (Gr5), D17) was “statistically different”. For the same sequence, the “left knee diameter, difference versus Gr8 (saline)” value (female Lewis rats; Coll2-1 5 μg I.A. (Gr5), D17) was “statistically different”, the “right knee diameter, difference versus Gr8 (saline)” value (female Lewis rats; Coll2-1 5 μg I.A. (Gr5), D17) was “statistically significance” and the “arthritis visual score, difference versus SCW (Gr2)” value (female Lewis rats; Coll2-1 5 μg I.A. (Gr5), D24) was “statistically different”. The “global histological score, right knee (injected)” value (female Lewis rats; Coll2-1 5 μg I.A. (Gr5)) was “intermediate between Gr8 (saline) and Gr2 (SCW)”, the “right knee diameter, difference Gr5 versus Gr6” value (female Lewis rats; Coll2-1 5 μg versus 0.5 μg I.A., D17) was “statistically different” and the “inflammatory criteria, right knee” value (female Lewis rats; Coll2-1 peptide I.A., D28, not statistically significant) was “intermediate increase”. For the same sequence, the “histological score (conclusion)” value (female Lewis rats; SCW arthritis model, I.A. injection, D21 and D28) was “intermediate scores” and the arthritis visual score (female Lewis rats; single I.A. injection into the right knee, D0 to D28) was “induced an increase”.

Source: patent publication US20170320939A1, “COLL2-1 PEPTIDE AND ITS NITRATED FORM AS THERAPEUTIC TARGETS FOR OSTEOARTHRITIS TREATMENT” (Université de Liège, priority 2014, published 2017)
